From US7968534B2, “Sulfonamide derivatives, preparation thereof and use thereof as antagonists of orexin 2 receptors” (Sanofi-Aventis, priority 2006, dated 2011)
Counter-ions that a name gives are not always drawn. Like-named read-outs stand apart in the source and are kept apart here.

Experiments:
human orexin 2 receptors = biological target: T1, human orexin 2 receptors (Homo sapiens, UniProt O43614); test: in vitro binding test: displacement of radioiodinated orexin A, membranes of CHO cells; conditions: read-out: IC50 OX 2
T1 construct: expressed in transfected cells; host or cells: CHO cells (membranes)
T1 sequence (O43614 1-444): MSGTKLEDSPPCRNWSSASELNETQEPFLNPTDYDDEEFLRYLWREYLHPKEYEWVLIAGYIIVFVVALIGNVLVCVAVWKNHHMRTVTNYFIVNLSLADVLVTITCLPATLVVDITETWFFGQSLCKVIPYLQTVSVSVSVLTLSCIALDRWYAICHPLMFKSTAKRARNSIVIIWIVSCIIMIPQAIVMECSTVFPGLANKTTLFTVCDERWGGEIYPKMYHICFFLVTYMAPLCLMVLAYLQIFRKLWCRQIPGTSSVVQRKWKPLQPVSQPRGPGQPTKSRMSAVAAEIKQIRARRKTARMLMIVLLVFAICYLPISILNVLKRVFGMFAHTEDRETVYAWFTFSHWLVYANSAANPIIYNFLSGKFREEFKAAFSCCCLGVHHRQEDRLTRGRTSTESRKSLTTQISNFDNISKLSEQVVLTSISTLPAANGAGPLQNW
Procedure: (§1) They were in particular tested for their effects. […] This method consists in studying the displacement of radioiodinated orexin A attached to the human orexin 2 receptors expressed in CHO cells. The test is performed on membranes in a 50 mM Hepes incubation buffer containing 1 mM MgCl2, 25 mM CaCl2, 0.025% NaN3, 1% bovine serum albumin (BSA) and 100 pM of ligand for 30 minutes at 25° C. The reaction is stopped by filtration and washing on a Whatman GF/C filter. The nonspecific binding is measured in the presence of 10^−6M human orexin B. The IC50 values (concentration inhibiting 50% of the binding of radioiodinated orexin A to its receptors) are low, less than 300 nM, in particular less than 100 nM and more particularly less than 30 nM.

human orexin 1 receptors = biological target: T2, human orexin 1 receptors (Homo sapiens, UniProt O43613); test: in vitro binding test, same technique, radioiodinated orexin A, membrane preparation of CHO cells; conditions: Table 2, read-out: IC50 OX 1
T2 construct: expressed in transfected cells; host or cells: CHO cells (membrane preparation)
T2 sequence (O43613 1-425): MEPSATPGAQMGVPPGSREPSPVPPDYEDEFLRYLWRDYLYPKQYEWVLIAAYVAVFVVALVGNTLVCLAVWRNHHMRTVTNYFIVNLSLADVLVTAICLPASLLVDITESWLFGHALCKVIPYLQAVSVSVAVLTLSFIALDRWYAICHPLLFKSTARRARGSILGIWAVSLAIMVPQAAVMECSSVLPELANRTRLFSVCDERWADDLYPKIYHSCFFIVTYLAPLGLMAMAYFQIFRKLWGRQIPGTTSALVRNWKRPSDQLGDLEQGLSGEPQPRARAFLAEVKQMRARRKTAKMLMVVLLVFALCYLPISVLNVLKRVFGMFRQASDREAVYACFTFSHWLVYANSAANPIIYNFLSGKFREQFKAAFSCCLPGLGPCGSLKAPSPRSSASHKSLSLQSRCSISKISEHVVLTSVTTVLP
Procedure: as §1
The affinity of the compounds according to the invention for the orexin 1 receptors was also studied in an in vitro binding test according to the same technique using radioiodinated orexin A as ligand in a membrane preparation of CHO cells expressing the human orexin 1 receptors. The compounds according to the invention have little or no affinity for the orexin 1 receptors.

[1] = Table 2, in vitro binding test, 100 pM radioiodinated orexin A, 30 minutes at 25° C.

Row | IC50 (human orexin 2 receptors; Table 1, assay not given) | IC50 (human orexin 1 receptors) | IC50 (human orexin 2 receptors; [1]) | Structure (SMILES)
1 | 7.2 nM |  |  | COc1ccc(S(=O)(=O)N(c2c(Cc3ccccc3Cl)cccc2OC)[C@H]2CCNC2)cc1OC [Compound 11, N-[2-(2-chlorobenzyl)-6-methoxyphenyl]-3,4-dimethoxy-N-[(3S)-pyrrolidin-3-yl]benzenesulfonamide hydrochloride]
2 | 10 nM |  |  | COc1ccc(S(=O)(=O)N(c2c(Cc3c(F)cccc3F)cccc2OC)[C@H]2CCC[C@@H]2N)cc1OC [Compound 14, N-[(1S,2S)-2-aminocyclopentyl]-N-[2-(2,6-difluorobenzyl)-6-methoxyphenyl]-3,4-dimethoxy-benzenesulfonamide hydrochloride]
3 | 12 nM |  |  | COc1ccc(S(=O)(=O)N(c2c(Cc3c(F)cccc3F)cc(Cl)cc2OC)[C@H]2CCNC2)cc1OC [Compound 18, N-[2-(2,6-difluorobenzyl)-4-chloro-6-methoxyphenyl]-3,4-dimethoxy-N-[(3S)-pyrrolidin-3-yl]benzenesulfonamide hydrochloride]

Second part, the compound before the results:

Row | Structure (SMILES) | IC50 (human orexin 2 receptors; Table 1, assay not given) | IC50 (human orexin 1 receptors) | IC50 (human orexin 2 receptors; [1])
4 | COc1ccc(S(=O)(=O)N(c2c(Cc3c(F)cccc3F)cccc2OC)[C@H]2CCNC2)cc1OC (atropisomer, axis not shown) [Compound 6, N-[2-(2,6-difluorobenzyl)-6-methoxyphenyl]-3,4-dimethoxy-N-[(3S)-pyrrolidin-3-yl]benzenesulfonamide hydrochloride] | 9.1 nM |  | 
5 | COc1ccc(S(=O)(=O)N(c2c(Cc3c(F)cccc3F)cccc2OC)[C@H]2CCNC2)cc1OC (atropisomer, axis not shown) [Compound 7, N-[2-(2,6-difluorobenzyl)-6-methoxyphenyl]-3,4-dimethoxy-N-[(3S)-pyrrolidin-3-yl]benzenesulfonamide hydrochloride] |  | 103 nM | 9 nM
6 | COc1ccc(S(=O)(=O)N(c2ccc(Cl)cc2Cc2c(F)cccc2F)[C@H]2CCNC2)cc1OC [Compound 1, N-[4-chloro-2-(2,6-difluorobenzyl)phenyl]-3,4-dimethoxy-N-[(3S)-pyrrolidin-3-yl]benzenesulfonamide hydrochloride] |  | 1380 nM | 16.4 nM
